Data published in publication PMC4961401 (PLoS ONE, 2016).
“Also recorded” adds a separate entry of the source. Read-outs that look alike come from different tables or passages of the source.

Tests used:
A549 cells [1] = assay: Annexin V/PI flow cytometry analysis of apoptosis; format: cell-based, human; details: 24 h treatment
Method: Flow cytometric analysis of the level of apoptosis was conducted using Alexa Fluor 488 Annexin V & PI /Dead Cell Apoptosis Kit (Invitrogen) according to the manufacturer’s instructions. Briefly, after the 24 h treatment with BF or BF211 at different concentrations, the cells were collected, washed with PBS and resuspended in binding buffer. Then, the cells were incubated with Annexin V-FITC and propidium iodide for 15 min in the dark at room temperature, and flow cytometric analysis was conducted. Data analysis was performed with the CellQuest software.

NCI-H460 cells = assay: MTT cell proliferation assay, NCI-H460; format: cell-based; details: Homo sapiens, NCI-H460, 72 h, read-out: IC50 values, inhibiting proliferation
Method: (§1) The human lung cancer A549, NCI-H460, NCI-H522 and NCI-H1299 cell lines were purchased from the Cell Resource Center of Shanghai Institutes for Biological Sciences, Chinese Academy of Sciences (Shanghai, P.R. China).
(§2) Cell proliferation was assessed using a colorimetric MTT assay as described previously [10]. […] After treatment, the viability of cells was evaluated by checking the absorbance at 570 nm.

A549 cells [2] = assay: MTT cell proliferation assay, A549; format: cell-based; details: Homo sapiens, read-out: IC50, cell viability (MTT)
Method: as §1, §2

NCI-H1299 cells = assay: MTT cell proliferation assay, NCI-H1299; format: cell-based; details: Homo sapiens; NCI-H1299, 72 h treatment; read-out: IC50 values, inhibiting proliferation
Method: as §1, §2

[3] = system: porcine cortex Na+/K+-ATPase; assay: Na+/K+-ATPase activity (Pi liberated from ATP); format: biochemical; details: for inhibition of the activity of porcine cortex Na+/K+-ATPase: different concentrations, 1 h incubation
Method: The activity of Na+/K+-ATPase was determined by measuring the amount of inorganic phosphate (Pi) liberated from ATP, as described previously. Briefly, a commercial Na+/K+-ATPase from porcine cerebral cortex (Sigma-Aldrich, USA) was incorporated into a reaction mixture containing 1 mM ATP, 5 mM MgCl2, 80 mM NaCl, 20 mM KCl, and 40 mM Tris-HCl (pH 7.8). The enzymatic reaction was terminated by adding trichloroacetic acid after the incubation period (1 h). After centrifugation, the supernatant was diluted with deionized water and then the color development reagent provided by the QuantiChrom™ Phosphate Assay Kit (BioAssay Systems, USA) was added. After 30 min of incubation at room temperature, the color intensity was measured at 620 nm on GENIOS reader (TEACAN, Switzerland). The Na+/K+-ATPase energy transducing activity was expressed as μmol Pi liberated from ATP by 1 mg of Na+/K+-ATPase in 1 h.

caspase-3 = assay: Caspase-3 activity assay (Ac-DEVD-pNA); format: cell-based, human; details: A549 cells, 24 h, different concentrations
Method: The activity of caspase-3 was determined using a caspase-3 activity assay kit (C1115, Beyotime Biotechnology, Shanghai, China) according to the manufacturer's instructions. Briefly, after treatment with BF or BF211 at different concentrations for 24 h, the A549 cells were collected, washed with PBS and incubated with lysis buffer on ice for 15 min. After centrifugation at 2,000 g for 15 min at 4°C, the cell lysates were collected, and their protein concentrations were determined using the A280 method with a UV-Vis Spectrophotometer Q5000 (Quawell Technology, San Jose, CA, USA). Cell lysates (50 μg protein) were then added to reaction buffer containing the caspase-3 substrate Ac-DEVD-p-nitroanilide (2 mM) in 96-well microtiter plates and incubated at 37°C for 4 h. The caspase-3 activity in the samples was quantified by detecting the release of p-nitroanilide from Ac-DEVD-p-nitroanilide with a microplate spectrophotometer at 405 nm. The caspase-3 activity was expressed as the fold of enzyme activity in comparison with the control.

ICR mice [4] = details: i.p., ref [14]; cited from earlier work
A549 cells [5] = assay: Free intracellular Ca2+ level (Fluo-3 AM, flow cytometry); format: cell-based, human; details: 50 nM
Method: The level of intracellular free Ca2+ in A549 cells was determined using the fluorescent dye Fluo-3 AM (S1056, Beyotime Biotechnology, Shanghai, China), which can cross the cell membrane and be cleaved into Fluo-3 by intracellular esterase. […] After being exposed to 50 nM BF or BF211 for 0.5, 1, 10, 30, 60 and 180 min, the cells were harvested, washed twice with PBS, and then incubated with Fluo-3 AM (5 μM) in the dark at 37°C for 1 h. After washing twice with PBS to remove the remaining extracellular probe, the cells were submitted to flow cytometric analysis with an excitation wavelength of 488nm. The quantification was conducted using the FlowJo software program based on the mean values of the peak fluorescent intensity.

caspase-3, PARP = assay: Western blot of caspase-3 activation and PARP cleavage; format: cell-based, human; details: A549 cells, 24 h, different concentrations
Method: Western blot assays were conducted as described previously. Briefly, the cellular protein samples were denatured by mixing with equal volume of 2 × sample loading buffer and then boiling at 100°C for 5 min. An aliquot (50 μg as protein) of the supernatant was loaded onto a 12% SDS gel, separated electrophoretically, and transferred to a Nitrocellulose membrane (Bio-Rad). After the membrane was incubated with 10 mM TBS with 20% Tween 20 and 5% dehydrated skim milk to block nonspecific protein binding, the membrane was incubated with primary antibodies overnight at 4°C. The primary antibodies used for detection of α1 and α3 subunit of Na+,K+-ATPase were rabbit polyclonal antibody against human ATP1A1 (55187, Proteintech, 1:1000) and ATP1A3 (sc-374050, Santa Cruz Biotechnology, 1:1000), respectively. Other primary antibodies including rabbit polyclonal antibody against human Src (#2109S, 1:1000), phosphor-Src(Tyr416) (#6943S, 1: 1000); PI3K p85 (#4257P, 1:1000), phosphor-PI3K p85(Tyr458)/p55(Tyr199) (#4228P, 1: 600), Akt (#9272, 1:1000), phosphor-Akt(Ser473) (#4060S, 1:800), Bax (#2772S, 1:1000), Pro-caspase-9 (#9502S, 1:800), Caspase-3 (#9662S, 1:800); PARP (#9542, 1:1000) and GAPDH (#2118, 1:1000) were all purchased from Cell Signaling Technology. […]

Src = assay: Western blot of Src activation (p-Src); format: cell-based, human; details: A549 cells, 50 nM
Method: Western blot assays were conducted as described previously. Briefly, the cellular protein samples were denatured by mixing with equal volume of 2 × sample loading buffer and then boiling at 100°C for 5 min. An aliquot (50 μg as protein) of the supernatant was loaded onto a 12% SDS gel, separated electrophoretically, and transferred to a Nitrocellulose membrane (Bio-Rad). After the membrane was incubated with 10 mM TBS with 20% Tween 20 and 5% dehydrated skim milk to block nonspecific protein binding, the membrane was incubated with primary antibodies overnight at 4°C. The primary antibodies used for detection of α1 and α3 subunit of Na+,K+-ATPase were rabbit polyclonal antibody against human ATP1A1 (55187, Proteintech, 1:1000) and ATP1A3 (sc-374050, Santa Cruz Biotechnology, 1:1000), respectively. Other primary antibodies including rabbit polyclonal antibody against human Src (#2109S, 1:1000), phosphor-Src(Tyr416) (#6943S, 1: 1000); PI3K p85 (#4257P, 1:1000), phosphor-PI3K p85(Tyr458)/p55(Tyr199) (#4228P, 1: 600), Akt (#9272, 1:1000), phosphor-Akt(Ser473) (#4060S, 1:800), Bax (#2772S, 1:1000), Pro-caspase-9 (#9502S, 1:800), Caspase-3 (#9662S, 1:800); PARP (#9542, 1:1000) and GAPDH (#2118, 1:1000) were all purchased from Cell Signaling Technology. After TBS washes, blots were then incubated with HRP-linked goat anti-rabbit IgG (#7074, 1:1000) secondary antibody for 2 h at room temperature at a 1:1000 dilution and then visualized using chemiluminescence (Pierce Biotechnology, Rockford, IL, USA).

NCI-H522 cells = assay: MTT cell proliferation assay, NCI-H522; format: cell-based; details: Homo sapiens; NCI-H522, 72 h treatment; read-out: IC50 values, inhibiting proliferation
Method: as §1, §2

A549 tumor xenografts = assay: Human A549 tumor xenograft in nude mice; format: in vivo, Balb/c-nu-nu mice; details: i.p., qd
Method: Male nude immunodeficient Balb/c-nu-nu mice, aged 6–7 weeks were purchased from the Shanghai Experimental Animal Center and housed in accordance with protocols approved by the Shanghai Institute of Materia Medica, Chinese Academy of Sciences. Generally, on day 0, A549 cells (8×10^6 cells) suspended in 0.1 mL of PBS were mixed with 0.1 mL Matrigel basement membrane matrix (BD Biosciences) and then inoculated s.c. in the right flank of each mouse. Tumors were allowed to reach 100–300 mm^3 in size before treatments were adminstered. In the animal experiment, the tumor size was measured every 3–4 days using calipers and the tumor volume was calculated using the standard formula, width^2×length/2. Body weight was measured daily.
Two experiments using nude mice with A549 tumor xenografts were conducted. In the first experiment, we tried to compare the anti-cancer effects of BF and BF211 at the same concentrations. Briefly, 12 days after inoculation, the mice were randomly divided into 6 groups (6 mice in each group) and began treatment with the vehicle control (natural saline, i.p., qd); a positive control (rapamycin, 10 mg/kg, i.v., once a week); BF at 0.8 mg/kg, i.p., qd; BF at 0.4 mg/kg for 7 days, which was then increased to 1.6 mg/kg for 9 days, i.p., qd; BF211 at 0.8 mg/kg, i.p., qd; BF211 at 0.4 mg/kg for 7 days, which was then increased to 1.6 mg/kg for 9 days, i.p., qd. In the second experiment, the anti-cancer effects of BF211 were determined at higher concentrations. Briefly, 15 days after inoculation, mice were randomly divided into 5 groups (10 mice in each group) and started treatment with the vehicle control (i.p., qd); a positive control (rapamycin, 10 mg/kg, i.v., once a week); BF211 at 2 mg/kg, i.p., qd; BF211 at 4 mg/kg, i.p., qd; BF211 at 6 mg/kg, i.p., qd. No mice died during this experimental period, and all animals were euthanized by CO2 inhalation at the end of the experiment.

tumor cell lines = system: tumor cell lines; set-up: method as in PMID 26827628; details: broad spectrum of tumor cell lines; ref [8]; cited from earlier work
[6] = target: recombinant extracellular portion of human Na+/K+-ATPase α3 subunit (Homo sapiens, UniProt P13637); assay: SPR (Biacore 3000) binding, α3 subunit
Method: (§3) The recombinant extracellular portion of human Na+/K+-ATPase α1 subunit (M1-M2, M3-M4, M5-M6, M7-M8 and M9-M10) was expressed as a His-fusion protein using Escherichia coli, and purified by affinity chromatography. […] The BamH I-Hind III fragment of the gene was subcloned into a pET-32b expression vector (Novagen) and transformed into E. coli BL21 (DE3) cells (Novagen). The BL21 transformants were cultivated in LB medium with ampicillin to an A600 nm of 0.8 at 37°C. Expression was induced by adding isopropyl β-D-thiogalactopyranoside (IPTG) to a final concentration of 10 mM, and incubated overnight at 20°C. The fusion protein containing a His-tag was isolated from the bacterial lysates by Ni^2+-chelation affinity chromatography using a Bio-Scale™ Mini Profinity™ IMAC Cartridge (Bio-Rad). Finally, the recombinant protein was desalted using a Bio-Scale™ Mini Bio-Gel P-6 Desalting Cartridge (Bio-Rad). The recombinant extracellular portions of the α2 and α3 subunits of human Na+/K+-ATPase were also expressed and purified using similar methods.
(§4) Briefly, for the SPR assay, the α1, α2 or α3 subunit protein was immobilized on a CM5 sensor chip as a ligand with N-ethyl-N’-(3-dimethylaminopropyl) carbodiimide (EDC) and N-hydroxysuccinimide (NHS) according to standard primary amine-coupling procedures. […] HBS-EP (10 mM HEPES, 150 mM NaCl, 3 mM EDTA, and 0.005% (v/v) surfactant P20, pH 7.4) was used as the running buffer. The equilibration of the baseline was performed by a continuous flow of HBS-EP through the chip surface for 1 to 2 h. The Biacore data were collected at 25°C with HBS-EP as the running buffer at a constant flow of 30 μL/min. […] The binding responses were recorded continuously in response units (RU) at a frequency of 1 Hz in sensorgrams and presented as a function of time.

in vivo = details: ICR, mouse, ip
Method: (§5) Therefore, totally 180 mice were used in the study of acute toxicity. […] During the 3 h observation period and other monitoring time periods, animals found in a moribund condition (head and body lying flat on cage bedding with little or no response to stimuli) and animals showing severe pain or severe distress (agonal breathing, intermittent gasping or both) were humanely killed. […] At the end of the experiment, all surviving animals were euthanized by CO2 inhalation. […] The LD50 value was calculated according to the Bliss method.

[7] = target: recombinant extracellular portion of human Na+/K+-ATPase α1 subunit (Homo sapiens, UniProt P05023); assay: SPR (Biacore 3000) binding, α1 subunit
Method: as §3, §4

[8] = target: recombinant extracellular portion of human Na+/K+-ATPase α2 subunit (Homo sapiens, UniProt P50993); assay: SPR (Biacore 3000) binding, α2 subunit
Method: as §3, §4

ICR mice [9] = details: single dose i.p., Bliss method
Method: as §5

[10] = concentrations less than 2 mg/kg (0.8 mg/kg, or 0.4 then 1.6 mg/kg)

Chain of recombinant extracellular portion of human Na+/K+-ATPase α3 subunit (P13637 with tags, fused parts or gaps): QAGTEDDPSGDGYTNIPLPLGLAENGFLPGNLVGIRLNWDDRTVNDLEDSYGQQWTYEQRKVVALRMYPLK
Chain of recombinant extracellular portion of human Na+/K+-ATPase α2 subunit (P50993 with tags, fused parts or gaps): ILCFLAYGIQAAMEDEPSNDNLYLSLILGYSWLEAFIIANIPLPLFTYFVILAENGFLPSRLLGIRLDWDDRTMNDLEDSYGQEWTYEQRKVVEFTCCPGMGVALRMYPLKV

C[C@]12CC[C@H](O)C[C@H]1CC[C@@H]1[C@@H]2CC[C@]2(C)[C@@H](c3ccc(=O)oc3)CC[C@]12O [BF, Bufalin, reference compound]
induction of apoptosis (A549 cells [1]): could induce apoptosis
IC50 (NCI-H460 cells): 114 ± 11.2 nM
IC50 (A549 cells [2]; 48 h treatment): 10.2 ± 1.01 nM
IC50 (NCI-H1299 cells): 88.3 ± 11.9 nM
inhibition of the activity of porcine cortex Na+/K+-ATPase [3]: concentration-dependent
enzyme activity of caspase-3 (caspase-3): increase in the activity of caspase-3
LD50 (ICR mice [4]): 2.2 mg/kg
time of peak intracellular Ca2+ level (A549 cells [5]): 0.5 min
activation of caspase-3 and cleavage of PARP (caspase-3, PARP): could induce the activation of caspase-3 and the cleavage of PARP
level of phosphorylated Src (p-Src) (Src; 1 h after treatment): significant increase
IC50 (NCI-H522 cells): 98.7 ± 2.76 nM
effect on tumor growth (A549 tumor xenografts; [10]): weak inhibitive effects

C[C@]12CC[C@H](OC(=O)NC3CCNCC3)C[C@H]1CC[C@@H]1[C@@H]2CC[C@]2(C)[C@@H](c3ccc(=O)oc3)CC[C@]12O [BF211]
induction of apoptosis (A549 cells [1]): more strongly induced apoptosis than BF
IC50 (NCI-H460 cells): 68 ± 6.91 nM
IC50 values, anticancer activities (tumor cell lines): nanomolar level
IC50 (A549 cells [2]; 24 h treatment): 6.76 ± 0.41 nM
IC50 (A549 cells [2]; 48 h treatment): 4.01 ± 2.68 nM
kon ([6]; 25°C, 1:1 Langmuir model, read-out: Association (ka)): 30700 M⁻¹ s⁻¹
koff ([6]; 25°C, 1:1 Langmuir model, read-out: Dissociation (kd)): 0.116 s⁻¹
Kd ([6]; KD = kd/ka, read-out: Equilibrium dissociation (KD)): 3.78 µM
IC50 (NCI-H1299 cells): 40.1 ± 4.04 nM
inhibition of Na+/K+-ATPase activity compared with BF ([3]; at some concentrations, such as 0.1 μM): slightly weaker than BF
inhibition of the activity of porcine cortex Na+/K+-ATPase [3]: concentration-dependent
enzyme activity of caspase-3 (caspase-3): significantly stronger than that of BF
time of another (second) peak of intracellular Ca2+ level (A549 cells [5]): 1800 s
time of peak intracellular Ca2+ level (A549 cells [5]): 0.5 min
activation of caspase-3 and cleavage of PARP (caspase-3, PARP): stronger than that of BF at high concentrations
LD50 (in vivo; female): 18.2 mg/kg
LD50 (in vivo; male): 14.8 mg/kg
kon ([7]; read-out: Association (ka)): 17700 M⁻¹ s⁻¹
koff ([7]; read-out: Dissociation (kd)): 0.0526 s⁻¹
Kd ([7]; α1, SPR, KD = kd/ka, read-out: Equilibrium dissociation (KD)): 2960 nM
kon ([8]; read-out: Association (ka)): 9820 M⁻¹ s⁻¹
koff ([8]; read-out: Dissociation (kd)): 0.0441 s⁻¹
Kd ([8]; α2, SPR, KD = kd/ka, read-out: Equilibrium dissociation (KD)): 4.49 µM
level of phosphorylated Src (p-Src) (Src; 1 h after treatment): significant increase
level of phosphorylated Src (p-Src) (Src; 3 h after treatment): significant increase
LD5 (95% confidence) (ICR mice [9]; female mice): 12.03 mg/kg (10.04~14.41 mg/kg)
LD95 (95% confidence) (ICR mice [9]; female mice): 27.55 mg/kg (22.56~33.66 mg/kg)
LD5 (95% confidence) (ICR mice [9]; male mice): 9.52 mg/kg (7.81~11.61 mg/kg)
LD95 (95% confidence) (ICR mice [9]; male mice): 22.85 mg/kg (18.89~27.64 mg/kg)
IC50 (NCI-H522 cells): 48.3 ± 0.69 nM
effect on tumor growth (A549 tumor xenografts; 6 mg/kg): almost totally blocked; also recorded: almost totally inhibited
effect on growth of tumor xenografts (A549 tumor xenografts; 2, 4, and 6 mg/kg): concentration-dependent inhibitive effects
effect on growth of tumor xenografts (A549 tumor xenografts; 4 or 6 mg/kg): strongly inhibited
effect on tumor growth (A549 tumor xenografts; [10]): weak inhibitive effects
